ChEMBL document CHEMBL5500412, “Discovery of Highly Selective, Potent, Covalent, and Orally Bioavailable Factor XIIa Inhibitors for the Treatment of Thrombo-Inflammation” (J Med Chem, 2024)
The source made the active and inactive calls. No cut-off for these calls is given here.

Assays:
[1] = biological target: T1, Coagulation factor XII (Homo sapiens) (UniProt P00748); assay: Inhibition of FXIIa (unknown origin) using H-D-Pro-Phe-Arg-pNA as substrate at 500 nM incubated for 20 mins followed by substrate addition by spectrophotometric analysis relative to control
T1 sequence (whole entry): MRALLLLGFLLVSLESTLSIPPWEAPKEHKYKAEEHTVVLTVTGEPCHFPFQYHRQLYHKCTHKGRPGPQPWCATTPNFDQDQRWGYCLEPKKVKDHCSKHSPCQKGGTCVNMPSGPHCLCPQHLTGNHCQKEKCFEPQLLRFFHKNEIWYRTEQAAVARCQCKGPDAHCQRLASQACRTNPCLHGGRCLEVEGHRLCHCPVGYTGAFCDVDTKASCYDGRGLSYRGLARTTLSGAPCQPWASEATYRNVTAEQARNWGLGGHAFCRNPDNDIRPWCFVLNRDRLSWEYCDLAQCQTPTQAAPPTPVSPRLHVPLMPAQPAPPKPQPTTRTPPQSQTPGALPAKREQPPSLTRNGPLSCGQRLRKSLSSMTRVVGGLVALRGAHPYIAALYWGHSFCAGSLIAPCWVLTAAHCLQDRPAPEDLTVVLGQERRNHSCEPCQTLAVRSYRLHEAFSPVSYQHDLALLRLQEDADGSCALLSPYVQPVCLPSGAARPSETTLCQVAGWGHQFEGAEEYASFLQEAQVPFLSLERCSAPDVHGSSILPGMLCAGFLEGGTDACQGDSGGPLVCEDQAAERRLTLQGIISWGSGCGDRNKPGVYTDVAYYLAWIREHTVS

Coagulation factor XII [2] = biological target: T2, Coagulation factor XII (Homo sapiens, UniProt P00748); assay: Inhibition of FXIIa (unknown origin) using H-D-Pro-Phe-Arg-pNA as substrate incubated for 20 mins followed by substrate addition by spectrophotometric analysis
T2 sequence (P00748 whole entry): T1 sequence (whole entry)

Coagulation factor XII [3] = biological target: T2, Coagulation factor XII; assay: Inhibition of human FXIIa (unknown origin)
[4] = Toxicity in BALB/c mouse assessed as prolongation of bleeding time at 30 mg/kg, po measured after 90 mins; format: organism-based; conditions: in vivo, 1.5 h
RAW264.7 [5] = assay: Antiinflammatory activity in mouse RAW264.7 cells assessed as inhibition of LPS-induced IL-1 beta expression at 10 uM preincubated for 12 hrs followed by LPS stimulation and measured after 12 hrs by real time quantitative RT-PCR assay; format: functional, cell-based; conditions: time 24.0 hrs
RAW264.7 [6] = assay: Antiinflammatory activity in mouse RAW264.7 cells assessed as inhibition of LPS-induced IL-6 expression at 10 uM preincubated for 12 hrs followed by LPS stimulation and measured after 12 hrs by real time quantitative RT-PCR assay; format: functional, cell-based; conditions: time 24.0 hrs
Prothrombin = Prothrombin (Homo sapiens, UniProt P00734); assay: Inhibition of thrombin (unknown origin) using H-D-Phe-Pip-Arg-pNA-2HCl as substrate incubated for 20 mins followed by substrate addition by spectrophotometric analysis
Plasma kallikrein = Plasma kallikrein (Homo sapiens, UniProt P03952); assay: Inhibition of PKal (unknown origin) using H-D-Pro-Phe-Arg-pNA-2HCl as substrate incubated for 20 mins followed by substrate addition by spectrophotometric analysis
Plasma kallikrein, sequence (P03952 20-390 limits assumed): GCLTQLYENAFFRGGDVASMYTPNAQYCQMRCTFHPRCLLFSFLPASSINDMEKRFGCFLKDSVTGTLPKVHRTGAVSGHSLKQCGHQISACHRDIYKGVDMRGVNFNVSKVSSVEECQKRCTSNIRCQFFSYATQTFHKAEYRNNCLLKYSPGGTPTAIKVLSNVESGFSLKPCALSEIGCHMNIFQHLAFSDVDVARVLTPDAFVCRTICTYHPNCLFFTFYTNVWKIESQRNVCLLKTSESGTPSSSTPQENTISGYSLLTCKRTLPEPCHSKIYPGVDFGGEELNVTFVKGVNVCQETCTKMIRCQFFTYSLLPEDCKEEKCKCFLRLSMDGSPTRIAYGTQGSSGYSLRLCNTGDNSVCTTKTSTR
Plasma kallikrein, sequence (P03952 391-638 limits assumed): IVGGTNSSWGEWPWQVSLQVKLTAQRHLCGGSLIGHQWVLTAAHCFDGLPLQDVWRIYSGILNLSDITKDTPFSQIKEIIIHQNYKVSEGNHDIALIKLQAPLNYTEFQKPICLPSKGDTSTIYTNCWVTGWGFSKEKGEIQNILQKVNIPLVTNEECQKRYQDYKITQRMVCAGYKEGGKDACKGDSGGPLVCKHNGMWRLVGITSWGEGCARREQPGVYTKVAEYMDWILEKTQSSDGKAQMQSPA

Coagulation factor XI = Coagulation factor XI (Homo sapiens, UniProt P03951); assay: Inhibition of FXIa (unknown origin) using p-Glu-Pro-Arg-pNA.HCl as chromogenic substrate incubated for 20 mins followed by substrate addition by spectrophotometric analysis
Coagulation factor XI, sequence (P03951 19-387 limits assumed): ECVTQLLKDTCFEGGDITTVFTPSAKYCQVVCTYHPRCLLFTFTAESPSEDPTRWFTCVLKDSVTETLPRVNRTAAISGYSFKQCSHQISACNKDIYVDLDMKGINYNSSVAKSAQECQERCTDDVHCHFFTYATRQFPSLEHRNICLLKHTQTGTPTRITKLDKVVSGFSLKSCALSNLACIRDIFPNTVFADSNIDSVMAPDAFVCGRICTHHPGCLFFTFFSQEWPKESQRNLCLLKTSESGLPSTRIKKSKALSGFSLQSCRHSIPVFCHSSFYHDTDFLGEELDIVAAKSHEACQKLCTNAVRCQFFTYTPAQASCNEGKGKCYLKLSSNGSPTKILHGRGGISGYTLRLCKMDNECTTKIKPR
Coagulation factor XI, sequence (P03951 388-625 limits assumed): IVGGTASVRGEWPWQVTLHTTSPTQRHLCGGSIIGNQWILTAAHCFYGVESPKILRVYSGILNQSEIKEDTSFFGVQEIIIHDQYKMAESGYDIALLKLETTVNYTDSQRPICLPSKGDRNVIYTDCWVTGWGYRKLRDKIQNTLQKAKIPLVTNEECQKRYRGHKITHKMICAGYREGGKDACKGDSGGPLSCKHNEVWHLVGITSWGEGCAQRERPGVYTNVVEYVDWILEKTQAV

Coagulation factor X = Coagulation factor X (Homo sapiens, UniProt P00742); assay: Inhibition of FXa (unknown origin) using Z-D-Arg-Gly-Arg-pNA.2HCl as chromogenic substrate incubated for 20 mins followed by substrate addition by spectrophotometric analysis
Coagulation factor X, sequence (P00742 41-179 limits assumed): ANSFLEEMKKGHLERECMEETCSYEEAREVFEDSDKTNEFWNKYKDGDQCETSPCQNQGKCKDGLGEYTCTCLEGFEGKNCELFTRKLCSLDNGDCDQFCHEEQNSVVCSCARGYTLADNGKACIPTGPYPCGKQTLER
Coagulation factor X, sequence (P00742 235-488 limits assumed): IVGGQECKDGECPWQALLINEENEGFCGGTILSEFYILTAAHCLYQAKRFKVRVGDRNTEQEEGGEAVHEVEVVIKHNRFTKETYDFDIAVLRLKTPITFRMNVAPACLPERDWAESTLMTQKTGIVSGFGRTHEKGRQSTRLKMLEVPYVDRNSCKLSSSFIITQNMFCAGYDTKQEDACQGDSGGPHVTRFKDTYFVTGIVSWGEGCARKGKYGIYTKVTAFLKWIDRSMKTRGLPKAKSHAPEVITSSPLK

Trypsin = Trypsin (Homo sapiens, UniProt P07477+P07478+P35030); assay: Inhibition of trypsin (unknown origin) using Bz-lle-Glu(gamma-OR)-Gly-Arg-pNA.HCl as chromogenic substrate incubated for 20 mins followed by substrate addition by spectrophotometric analysis; format: protein assay
Chymotrypsin = Chymotrypsin (Homo sapiens, UniProt Q99895+P17538+P40313+Q6GPI1); assay: Inhibition of Chymotrypsin (unknown origin) using N-Suc-Ala-Ala-Pro-Phe-pNA as chromogenic substrate incubated for 20 mins followed by substrate addition by spectrophotometric analysis; format: protein assay
Plasminogen = Plasminogen (Homo sapiens, UniProt P00747); assay: Inhibition of plasmin (unknown origin) using PyroGlu-Phe-Lys-pNA.HCl as chromogenic substrate incubated for 20 mins followed by substrate addition by spectrophotometric analysis
Plasminogen, sequence (P00747 97-580 limits assumed): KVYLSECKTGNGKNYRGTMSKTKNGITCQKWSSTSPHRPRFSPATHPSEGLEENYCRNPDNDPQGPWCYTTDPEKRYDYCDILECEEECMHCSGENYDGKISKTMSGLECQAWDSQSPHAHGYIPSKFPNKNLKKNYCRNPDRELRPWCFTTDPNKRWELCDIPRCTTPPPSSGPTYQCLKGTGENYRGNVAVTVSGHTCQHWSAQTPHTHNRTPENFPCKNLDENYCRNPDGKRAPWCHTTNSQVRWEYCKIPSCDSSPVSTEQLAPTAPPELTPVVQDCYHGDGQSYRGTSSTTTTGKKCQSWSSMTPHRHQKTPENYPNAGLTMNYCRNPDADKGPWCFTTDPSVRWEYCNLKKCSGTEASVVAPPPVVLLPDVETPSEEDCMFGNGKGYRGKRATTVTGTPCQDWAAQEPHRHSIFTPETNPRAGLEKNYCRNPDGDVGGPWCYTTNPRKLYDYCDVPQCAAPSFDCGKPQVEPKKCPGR
Plasminogen, sequence (P00747 581-810 limits assumed): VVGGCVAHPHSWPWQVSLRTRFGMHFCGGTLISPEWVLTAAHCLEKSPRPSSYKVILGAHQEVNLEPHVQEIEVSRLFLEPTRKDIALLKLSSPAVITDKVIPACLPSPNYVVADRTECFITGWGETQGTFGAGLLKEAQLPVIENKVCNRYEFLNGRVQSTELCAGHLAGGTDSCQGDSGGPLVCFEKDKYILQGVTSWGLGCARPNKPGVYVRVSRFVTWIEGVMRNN

[7] = biological target: Tissue-type plasminogen activator (Homo sapiens, UniProt P00750); assay: Inhibition of tPA (unknown origin) using H-D-lle-Pro-Arg-pNA-2HCl as chromogenic substrate incubated for 20 mins followed by substrate addition by spectrophotometric analysis
Tissue-type plasminogen activator, sequence (P00750 whole entry): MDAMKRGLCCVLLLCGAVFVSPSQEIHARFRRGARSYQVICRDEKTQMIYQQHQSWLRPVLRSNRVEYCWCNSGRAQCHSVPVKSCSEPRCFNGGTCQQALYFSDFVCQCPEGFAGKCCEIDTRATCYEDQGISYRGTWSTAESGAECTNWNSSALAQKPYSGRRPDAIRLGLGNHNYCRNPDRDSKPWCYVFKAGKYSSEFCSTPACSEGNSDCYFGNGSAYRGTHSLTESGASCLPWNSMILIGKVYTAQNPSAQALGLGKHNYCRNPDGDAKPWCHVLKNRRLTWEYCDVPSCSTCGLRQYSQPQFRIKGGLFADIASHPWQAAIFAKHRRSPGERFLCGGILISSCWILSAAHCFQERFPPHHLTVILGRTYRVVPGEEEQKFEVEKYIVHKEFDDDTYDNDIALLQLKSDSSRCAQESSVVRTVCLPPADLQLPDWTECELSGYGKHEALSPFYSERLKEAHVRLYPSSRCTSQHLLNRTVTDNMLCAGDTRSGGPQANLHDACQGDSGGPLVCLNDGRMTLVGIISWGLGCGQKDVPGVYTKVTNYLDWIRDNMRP

[8] = Selectivity index, ratio of IC50 for thrombin (unknown origin) to IC50 for FXIIa (unknown origin)
[9] = Selectivity index, ratio of IC50 for PKal (unknown origin) to IC50 for FXIIa (unknown origin)
[10] = Selectivity index, ratio of IC50 for FXIa (unknown origin) to IC50 for FXIIa (unknown origin)
[11] = Selectivity index, ratio of IC50 for FXa (unknown origin) to IC50 for FXIIa (unknown origin)
[12] = Selectivity index, ratio of IC50 for trypsin (unknown origin) to IC50 for FXIIa (unknown origin)
[13] = Selectivity index, ratio of IC50 for chymotrypsin (unknown origin) to IC50 for FXIIa (unknown origin)
[14] = Selectivity index, ratio of IC50 for plasmin (unknown origin) to IC50 for FXIIa (unknown origin)
[15] = Selectivity index, ratio of IC50 for tPA (unknown origin) to IC50 for FXIIa (unknown origin)
Plasma [16] = assay: Anticoagulant activity in human plasma assessed as prolongation of activated partial thromboplastin time at 300 uM incubated for 2 mins by aPTT reagent based assay relative to control; format: functional
Plasma [17] = assay: Anticoagulant activity in human plasma assessed as prolongation of […] time at 300 uM incubated for 2 mins by PT reagent based assay; format: functional, cell-free

SMILES	inhibition [1]	IC50 (Coagulation factor XII [2])	also measured
Nc1nc(-c2ccccn2)nn1C(=O)c1cccc(N2CCC3(CC2)OCCO3)c1	40%		
Cc1cc(C(=O)n2nc(-c3ccccn3)nc2N)cc(C)c1N1CCN(C(C)C)CC1	28%		
CC(C)S(=O)(=O)N1CCN(c2ccc(C(=O)n3nc(-c4ccccn4)nc3N)c3ccccc23)CC1		0.095 µM	
Nc1nc(-c2ccccn2)nn1C(=O)c1ccc(NC(=O)c2ccccc2)cc1F	28%		
CN(C)CCN(C)c1ccc(C(=O)n2nc(-c3ccccn3)nc2N)cc1	72%	0.19 µM	
CC(C)N1CCN(c2ccc(C(=O)n3nc(-c4ccccn4)nc3N)c3c2OCCO3)CC1		0.051 µM	
Nc1nc(-c2ccccn2)nn1C(=O)c1ccc(NC(=O)c2cccc3c2CCCC3)cc1	62%		
CC(C)N1CCN(c2ccc(C(=O)n3nc(-c4ccccn4)nc3N)cc2)CC1	79%	0.072 µM	
Nc1nc(-c2ccccn2)nn1C(=O)c1ccc(N2CCN(CCO)CC2)cc1	63%		
CC(C)C[C@@H](NC1CCCC1)C(=O)Nc1ccc(C(=O)n2nc(-c3ccccn3)nc2N)cc1	28%		
Nc1nccc2c(NCC34COC(COc5ccn6ccnc6c5)(C3)C4)cccc12			IC50 (Coagulation factor XII [3]): 0.1 µM
Cc1cc(N2CCn3c(nnc3C(F)(F)F)[C@@H]2C)ncc1CNc1cccc2c(N)nccc12			IC50 (Coagulation factor XII [3]): 0.01 µM
COCCN1CCN(c2ccc(C(=O)n3nc(-c4ccccn4)nc3N)cc2)CC1	65%		
O=C(NC[C@H]1CN(c2ccc(N3CCOCC3=O)cc2)C(=O)O1)c1ccc(Cl)s1 [RIVAROXABAN]			Activity [4]: Toxic
CN1CC=C(c2ccc(C(=O)n3nc(-c4ccccn4)nc3N)cc2)CC1	40%		
Nc1nc(-c2ccccn2)nn1C(=O)c1ccc(N2CCN(C3CCCCC3)CC2)c2ccccc12		0.056 µM	
CC(C)N1CCN(c2ccc(C(=O)n3nc(-c4ccc(F)cn4)nc3N)cc2)CC1	79%	0.079 µM	Activity (RAW264.7 [5]): Active; Activity (RAW264.7 [6]): Active
CN1CCC(c2ccc(C(=O)n3nc(-c4ccccn4)nc3N)cc2)CC1	34%		
CN1CCN(c2ccc(C(=O)n3nc(-c4ccccn4)nc3N)cc2)CC1	72%	0.18 µM	

SMILES	inhibition [1]	IC50 (Coagulation factor XII [2])	also measured
Nc1nc(-c2ccccn2)nn1C(=O)c1ccc(NC(=O)[C@@H](Cc2ccccc2)NC2CCCCC2)cc1	24%		
Nc1nc(-c2ccccn2)nn1C(=O)c1ccc(N2CCC3(CC2)OCCO3)cc1	70%	0.202 µM	
Nc1nc(-c2ccccn2)nn1C(=O)c1ccc(NC(=O)c2ccccc2)c(F)c1	9%		
CC(C)N1CCN(c2ccc(C(=O)n3nc(-c4ccc(Cl)cn4)nc3N)cc2)CC1	77%	0.081 µM	
CN(C)C(=O)N1CCN(c2ccc(C(=O)n3nc(-c4ccccn4)nc3N)c3ccccc23)CC1		0.086 µM	
CN1CCN(c2cccc(C(=O)n3nc(-c4ccccn4)nc3N)c2)CC1	21%		
CN1CCN(c2ccc(C(=O)n3nc(-c4ccncc4)nc3N)cc2)CC1	71%	0.195 µM	
Nc1nc(-c2ccccn2)nn1C(=O)c1ccc(NC(=O)c2cccc3c2OCCO3)cc1	62%		
Nc1nc(-c2ccccn2)nn1C(=O)c1ccc(N2CCN(C3COC3)CC2)c2ccccc12		0.039 µM	IC50 (Prothrombin): 20 µM; IC50 (Plasma kallikrein): > 25 µM; IC50 (Coagulation factor XI): > 25 µM; IC50 (Coagulation factor X): > 25 µM; IC50 (Trypsin): > 25 µM; IC50 (Chymotrypsin): > 25 µM; IC50 (Plasminogen): > 25 µM; IC50 [7]: > 25 µM; Ratio IC50 [8]: 830; Ratio IC50 [9]: > 640; Ratio IC50 [10]: > 640; Ratio IC50 [11]: > 640; Ratio IC50 [12]: > 640; Ratio IC50 [13]: > 640; Ratio IC50 [14]: > 640; Ratio IC50 [15]: > 640; Activity (RAW264.7 [5]): Active; Activity (RAW264.7 [6]): Active; Activity (Plasma [16]): 472%; Activity (Plasma [17]): inactive
COc1cc(C(=O)n2nc(-c3ccccn3)nc2N)ccc1N1CCN(C(C)C)CC1	43%		
Nc1nc(-c2ccccn2)nn1C(=O)c1ccc(NC(=O)c2cccc3ccccc23)cc1	60%		
Nc1nc(-c2ccccn2)nn1C(=O)c1ccc(N2CCN(C3CCCC3)CC2)c2ccccc12		0.05 µM	
Nc1nc(-c2ccccn2)nn1C(=O)c1ccc(N2CCN(C3CC3)CC2)c2ccccc12		0.04 µM	
Cc1cc(C(=O)n2nc(-c3ccccn3)nc2N)ccc1N1CCN(C(C)C)CC1	82%	0.048 µM	Activity (RAW264.7 [5]): Active; Activity (RAW264.7 [6]): Active
Nc1nc(-c2ccccn2)nn1C(=O)c1ccc(NC(=O)c2ccccc2)cc1	74%	0.163 µM	IC50 (Prothrombin): 15.7 µM; IC50 (Plasma kallikrein): > 25 µM; IC50 (Coagulation factor XI): > 25 µM; IC50 (Trypsin): > 5 µM; IC50 (Chymotrypsin): > 5 µM; IC50 (Plasminogen): > 5 µM; IC50 [7]: > 5 µM; Ratio IC50 [8]: 770; Ratio IC50 [9]: > 150; Ratio IC50 [10]: > 150; Ratio IC50 [11]: > 30; Ratio IC50 [12]: > 30; Ratio IC50 [13]: > 30; Ratio IC50 [14]: > 30; Ratio IC50 [15]: > 30; Activity (Plasma [16]): 35%
Nc1nc(-c2ccccn2)nn1C(=O)c1ccc(NC(=O)[C@@H](CC2CCCCC2)NC2CCCCC2)cc1	33%		
Nc1nc(-c2ccccn2)nn1C(=O)c1ccc(N2CCC3(CC2)CC3)cc1	21%		
Nc1nc(-c2ccccn2)nn1C(=O)c1ccc(NCc2ccccc2)cc1	39%		
CN1CCN(c2ccc(C(=O)n3nc(-c4cccnc4)nc3N)cc2)CC1	57%		
